Results: patent US5770623A, “Argine antagonists for inhibition of systemic hypotension associated with nitric oxide production or endothelial derived relaxing factor” (Board of Regents, The University of Texas System, priority 1995, dated 1998)
Entries after “also recorded” stand apart in the source; their conditions may differ. Read-outs that look alike come from different tables or passages of the source.

What was measured:
control dogs = experiment: L-NMA in control dogs (Example 4); format: in vivo, dog; settings: for increase in blood pressure (SAP) by L-NMA: control dogs, L-NMA 20 mg/kg, n=4
Method: (§1) Animals: Studies were carried out on 12 conditioned mongrel dogs (9 males and 3 females) weighing 22-32 kg (avg=25.3 kg). Animal care was in accordance with the recommendations of the American Association for Accreditation of Laboratory Animal Care, and met all standards prescribed by the Guide for the Care and Use of Laboratory Animals (Guide for the Care and Use of Laboratory Animals (1978) Dept. of Health, Education and Welfare, Washington, D.C. (Publ. No. 78-23). Animal protocols were approved by The University of Texas Animal Welfare Committee. The dogs were fasted overnight prior to the day of experimentation. They were anesthetized with sodium pentobarbital (25 mg/kg I.v.). Dogs were then endotracheally intubated and ventilated with a piston-driven respirator (Harvard instruments) using room air at a tidal volume of 20 ml/kg and at a rate of 10 to 12 breaths per minute, adjusted to achieve a normal arterial pH and pCO2 (Instrumentation Laboratories 1L13012 pH/Blood Gas Analyzer). Catheters were placed percutaneously into the femoral and pulmonary arteries; In the latter, a flow-directed thermal-dilation catheter was used (Abbott Critical Care Systems).
(§2) Physiologic measurements: Mean SAP and heart rate were continuously monitored (Parametron 7048 Monitoring System, Roche) and stored on a magnetic disk using an analog-to-digital converter (Scientific Solutions, Inc.). Cardiac output (CO) was determined as the mean of six measurements by thermal-dilution. Systemic vascular resistance was calculated as (SAP X80)/CO and expressed as […].
(§3) Protocol: After the blood pressure and heart rate stabilized, endotoxin (40 ug/kg, in 10 ml of phosphate-buffered saline (PBS), pH 7.4) was infused i.v. over 2 minutes. This dose of endotoxin typically induces severe and often lethal cardiovascular collapse in the dog. Blood pressure was monitored, and when either SAP fell below 60 mmHg or a stable nadir in systemic arterial pressure (SAP) was maintained for 10 minutes, L-NMA was administered (20 mg/kg in 5 ml of PBS i.v. over 1 min.). In most experiments, L-arginine (400 mg/kg in 20 mi PBS) was administered ten minutes later by i.v. infusion over 2 minutes. In control experiments, dogs without prior exposure to endotoxin received L-NMA alone. To simulate the hypotension observed in dogs receiving endotoxin, one group of dogs received a continuous i.v. infusion of nitroglycerin (2 mg/ml) at a rate adjusted to maintain the SAP at 60-70 mm Hg. Nitroglycerin-treated dogs then received L-NMA (20 mg/kg) and 20 minutes later L-arginine was administered […].

[1] = system: vascular EDRF/NO synthesis; settings: Sakuma et al., cited from earlier work
[2] = system: systemic hypotension mediated by interleukin-1; experiment: Interleukin-1 mediated systemic hypotension; format: in vivo; settings: after N^G-aminoarginine
endotoxin-treated dogs = format: in vivo, dog; design: blood pressure after L-arginine / change in SAP after L-arginine: dose or concentration left out as unconfirmed; settings: for Cardiac Output / Heart Rate / Systemic Arterial Pressure / Systemic Vascular Resistance: Table 1, Study 1: Endotoxin-treated (n = 4)
Method: as §1, §2, §3

[3] = system: human internal mammary artery; experiment: ACh-induced relaxation of human internal mammary artery; settings: for effect on ACh-induced vasorelaxation: NE-preconstricted, FIG. 11
Description: FIG. 11 contains representative physiograph tracings which depict ACh-induced relaxation of NE-preconstricted rings prepared from rabbit aorta (upper panel) and human internal mammary artery (lower panel).

[4] = system: nitroglycerin-treated dogs; experiment: Nitroglycerin-induced hypotension in dogs (Example 4); format: in vivo, dog; settings: for Cardiac Output / Heart Rate / Systemic Arterial Pressure / Systemic Vascular Resistance: Table 1, Study 2: Nitroglycerin-treated (n = 3)
Method: as §1, §2, §3
In an additional series of experiments, blood pressure was reduced to 65 mm Hg by continuous i.v. infusion of nitroglycerin, a hypotensive agent that forms NO by an L-arginine and NO synthetase-independent mechanism.

[5] = system: bovine aortic endothelial cells (BAEC); experiment: A23187-stimulated nitrite release from bovine aortic endothelial cells; format: cell-based; settings: 3 μg/ml A23187, 4-hour, FIG. 12
Method: The % inhibition of relaxation is calculated from the maximum ACh-induced relaxation observed in the presence of the arginine analog relative to that in its absence. Points represent mean values±SEM (n=4-6). […] Another N^G substitution tested for inhibition of induced nitrite release had two methyl groups on one of the arginine guanidino nitrogens. Concentration-response relationships for inhibition of A23187-stimulated nitrite release by bovine aortic endothelial cells (BAEC) are shown in FIG. 9a for the N,N-disubstituted derivative in comparison with several monosubstituted derivatives. Nitrite production was measured as an indication of nitric oxide synthesis since nitric oxide spontaneously decays to nitrite. Nitrite production by BAEC in a 2-hr. period was assessed in an L-arginine-free medium alone or in the presence of the indicated concentration of arginine analogs. The points plotted represent means±S.E. of the percent inhibition of nitrite production observed in 3 individual BAEC culture wells. The key on FIG. 9a indicates the groups substituted on the guanidino nitrogens of L-arginine.
Points are mean values±SEM (n=3).

rat aorta = experiment: ACh-induced relaxation of rat aorta; settings: NMMA 5 μM
Method: (§4) Guinea pig pulmonary artery (GP PA), rat and rabbit aorta (Ao), and dog coronary (CA) and femoral artery (FA) were precontracted with NE (1 μM) and relaxed with a single concentration of ACh. Concentration of ACh: GP PA 1 μM, rat Ao […], rabbit Ao 0.3, dog CA […] and […] 0.1 μM. […] The concentrations of L-citrulline (L-cit), D-arginine (D-arg) and L-arginine (L-arg) were all 0.5 mM. Bars are mean values±SEM (n=4-6).

[6] = system: dog coronary (CA) and femoral artery (FA); experiment: ACh-induced relaxation of dog coronary and femoral artery; settings: NMMA 100 μM
Method: as §4

L929 cells = experiment: Cytolytic activity of rh-TNF against Actinomycin D-treated L929 cells; format: cell-based, murine
Method: TNF bioactivity was measured by the cytotoxicity towards murine L929 cells, in vitro.

[7] = system: murine endothelial cells exposed to Gamma-Interferon and TNF (nitric oxide production); settings: mouse endothelial cells, immunomodulators and endotoxin; cited from earlier work

Compound: N=C(N)NCCC[C@H](N)C(=O)O [L-arginine, reference compound]
- effect of L-arginine on pressor effect of L-NMA (control dogs; 400 mg/kg): fully reversed the pressor effect of L-NMA
- restoration of EDRF/NO synthesis ([1]; excess L-arginine after L-NMA): restored
- effect of L-arginine on the reversal [2]: obviated this reversal
- effect of L-arginine on L-NMA effect (endotoxin-treated dogs; 400 mg/kg L-arginine): reversed the effect of L-NMA and restored the endotoxin-induced hypotension
- blood pressure after L-arginine (endotoxin-treated dogs; 2 hours after L-NMA dosing, decline): < 45 mm Hg
- blood pressure after L-arginine (endotoxin-treated dogs; FIG. 24, L-arginine): 43 mm Hg
- change in SAP after L-arginine (endotoxin-treated dogs; FIG. 24, L-arginine): -77 mm Hg
- Cardiac Output (endotoxin-treated dogs): 2.31 ± 0.43 L/min
- Heart Rate (endotoxin-treated dogs): 116.7 ± 18.8 beats/min
- Systemic Arterial Pressure (endotoxin-treated dogs): 52.7 ± 8.8 mmHg
- Systemic Vascular Resistance (endotoxin-treated dogs): 1851 ± 171 dynes-sec/cm^5
- effect on ACh-induced vasorelaxation [3]: restores relaxation
- Cardiac Output [4]: 5.15 ± 1.08 L/min
- Heart Rate [4]: 148.7 ± 19.9 beats/min
- Systemic Arterial Pressure [4]: 56.9 ± 13 mmHg
- Systemic Vascular Resistance [4]: 1088.2 ± 491 dynes-sec/cm^5

Compound: CNC(=N)NCCC[C@H](N)C(=O)O [NMMA, N^G -methyl-L-arginine]
- Cardiac Output (control dogs; Table 2, control dogs (n = 4)): 2.12 ± 0.26 L/min
- Heart Rate (control dogs; Table 2, control dogs (n = 4)): 82.5 ± 6.1 beats/min
- Systemic Arterial Pressure (control dogs; Table 2, control dogs (n = 4)): 153.8 ± 11.4 mmHg
- Systemic Vascular Resistance (control dogs; Table 2, control dogs (n = 4)): 5967 ± 523 dynes-sec/cm^5
- increase in blood pressure (SAP) by L-NMA (control dogs; listed as L-NMA): 24.8±2.7 mmHg
- increase in blood pressure (SAP) by L-NMA (control dogs; listed as N^G -methyl-L-arginine): 24.8±4.7 mmHg
- increase in SVR (control dogs; other two control dogs): about 1400 dynes-sec/cm^5
- decrease in cardiac output (control dogs; two of four control dogs): > 1.5 L/min
- increase in SVR (control dogs; two of four control dogs with marked decrease of cardiac output): ≥ 3500 dynes-sec/cm^5
- inhibition of vascular EDRF/NO synthesis ([1]; induced by acetylcholine and histamine): inhibit vascular EDRF/NO synthesis
- effect on EDRF/NO (nitrite) release [5]: inhibits EDRF/NO release
- inhibition of EDRF/NO in vascular preparation (rat aorta): arginine reversible inhibitor of EDRF/NO
- anti-hypotensive effect in endotoxemic dog (endotoxin-treated dogs; 20 mg/kg L-NMA): rapid and strong anti-hypotensive effect; also recorded: restores blood pressure to normal or near normal values
- increase in SAP by L-NMA (endotoxin-treated dogs; FIG. 24, 20 mg/kg, within 10 min): 73 mm Hg
- duration of maintained blood pressure, first dose (endotoxin-treated dogs; FIG. 24, first dose of L-NMA): 48 min
- SAP maintained after second dose (endotoxin-treated dogs; FIG. 24, for 2 hrs): greater than 100 mm Hg
- time to normalization / reversal of hypotension (endotoxin-treated dogs; L-NMA 20 mg/kg i.v.): ≤ 1.5 min
- increase in SVR by L-NMA (endotoxin-treated dogs; L-NMA, endotoxin-treated): 2060±338 dynes-sec/cm^5
- Cardiac Output (endotoxin-treated dogs): 2.03 ± 0.32 L/min
- Heart Rate (endotoxin-treated dogs): 123.3 ± 4.8 beats/min
- Systemic Arterial Pressure (endotoxin-treated dogs): 107 ± 9.6 mmHg
- Systemic Vascular Resistance (endotoxin-treated dogs): 4462 ± 552 dynes-sec/cm^5
- duration of normal blood pressure with additional dose (endotoxin-treated dogs; additional dose of L-NMA 20 mg/kg): at least 2 hours
- increase in SAP by L-NMA (endotoxin-treated dogs; endotoxemic dogs, L-NMA 20 mg/kg, n=4): 47.8±6.8 mmHg
- HR and CO after L-NMA (endotoxin-treated dogs; endotoxin-treated): unchanged
- pressor effect of doses greater than 20 mg/kg (endotoxin-treated dogs; limited dose response studies, versus 20 mg/kg): do not have a significantly greater pressor effect
- duration of normal blood pressure after single dose (endotoxin-treated dogs; single i.v. dose L-NMA 20 mg/kg): 30 to 60 min
- inhibition of EDRF/NO in vascular preparation [6]: arginine reversible inhibitor of EDRF/NO
- effect on ACh-induced vasorelaxation [3]: attenuate ACh-induced vasorelaxation
- inhibition of EDRF/NO in vascular preparation ([3]; human): arginine reversible inhibitor of EDRF/NO
- HR, CO or SVR after L-NMA ([4]; L-NMA 20 mg/kg): without significant alteration in HR, CO, or SVR
- Cardiac Output [4]: 3.85 ± 0.8 L/min
- Heart Rate [4]: 191.7 ± 35.0 beats/min
- Systemic Arterial Pressure [4]: 81.8 ± 3.5 mmHg
- Systemic Vascular Resistance [4]: 1851 ± 399 dynes-sec/cm^5
- increase in blood pressure (SAP) by L-NMA ([4]; nitroglycerin infusion, L-NMA 20 mg/kg, n=3): 17.1±5.0 mmHg
- TNF Activity (L929 cells; [NMMA] 0.125 mM): 536.9 Units/ml
- TNF Activity (L929 cells; [NMMA] 0.250 mM): 538.2 Units/ml
- TNF Activity (L929 cells; [NMMA] 0.500 mM): 562.4 Units/ml
- TNF Activity (L929 cells; [NMMA] 1.0 mM): 415.7 Units/ml
- effect on cytolytic effect of TNF towards tumor cells (L929 cells; murine L929 cells, in vitro): did not alter the cytolytic effect of TNF
- effect on nitrite accumulation [7]: blocked
